Literature values as cited in patent US20040223951A1, “Combination therapy for cancer” (Schering Corporation, priority 2000, published 2004).

Key:
[1] = administered orally

bioavailability [1]: approximately 100%
Compound: Cn1nnc2c(C(N)=O)ncn2c1=O [Temozolomide, 3,4-dihydro-3-methyl-4-oxoimidazo-[5,1-d]1,2,3,4-tetrazin-8-carboximide]
clinical response, % of patients with advanced melanoma (advanced melanoma; Journal of Clinical Oncology, Vol. 13, No. 4, 1995, pp. 910-913): 21%
clinical responses, % of patients having advanced melanoma (advanced melanoma; Newlands ES, et al., Br J Cancer 65 (2) 287-291, 1992): 17%
plasma concentration of active metabolite MTIC versus conventional dosing (extended daily dosing of TMZ, Brock et al. Cancer Res. 1998;58:4363): higher plasma concentration of the active metabolite MTIC than conventional dosing
plasma concentrations of MTIC versus DTIC (oral TMZ compared with IV DTIC): higher plasma concentrations of MTIC than IV administration of DTIC
